Laboratory results from US20020018806A1, “Lipopeptide adjuvants” (priority 2000, published 2002).

Test system: peripheral blood mononuclear cells
Assay: T-cell promiscuity in unimmunized humans: PBMC proliferation with lipopeptide (3H-thymidine incorporation)
Type: cell-based, human
Settings: PBMC 3×10^5/well, 5-6 days with lipopeptide, responder = ≧2 S.I. (cpm with antigen/cpm media only)

For Tetanus toxoid, the Responder/Total was 10/21.
